The values that follow come from US9758559B2, “Short peptides derived from VDAC1, compositions and methods of use thereof” (B.G. NEGEV TECHNOLOGIES AND APPLICATIONS LTD., AT …, priority 2013, dated 2017).

The test system of test [1] is MEC-1 cells. Type of test: cell-based. To be noted: for cell-death induction activity, in words: compared with N-Ter-Antp. The protocol: (§1) MEC-1, MO1043 and T-Rex-293 cells were grown in DMEM supplemented with 10% FCS, 2 mM L-glutamine, 1000 U/ml penicillin and 1 mg/ml streptomycin, U-87, C6 and PC3 were maintained in RPMI 1640 supplemented with 10-20% FCS, 2 mM L-glutamine, 1000 U/ml penicillin and 1 mg/ml streptomycin. All cells were maintained in a humidified atmosphere with 5% CO2 at 37° C.
(§2) PBMCs (4×10^5 or 8×10^5 cells/sample) were incubated in 200 μl serum-free medium with the examined peptide for 90 min at room temperature and centrifuged (500×g, 5 min) Cell death was analyzed by PI staining and flow cytometer (Beckton-Dickinson) and BD Cell Quest Pro software. Apoptotic cell death was also analyzed by PI and annexin V-FITC staining (Zaid H et al. 2005. 12:751-760), and by acridine orange and ethidium bromide staining and confocal microscopy (Olympus 1×81).
To optimize the VDAC1 N-terminal derived peptides with respect to stability, length and specific targeting to cancer cells, several versions of these peptides were designed and tested for their efficacy in inducing the death of CLL-derived lymphocytes and MEC-1 cells (Table 3). Cells were incubated for 90 min with increasing concentrations of the indicated peptide and death was analyzed by PI stating and FACS as described hereinabove. As is clearly shown in FIG. 1 (and Table 3), deleting 6 residues from the C-terminus of the peptide, including the GXXXG motif, yielded a non-active peptide (peptide Δ(21-26) N-Ter-Antp, SEQ ID NO:22).

The subject of test [2] is CLL-derived lymphocytes. The experiment in a line: Cell death of CLL-derived lymphocytes (PBMCs of CLL patients), PI staining and FACS. It is filed as cell-based, human. To be noted: 90 min incubation, PI staining, FACS, read-out: IC50, induction of cell death, CLL. On the procedure: PBMCs were isolated from venous blood of the CLL patients by Ficoll-Paque PLUS (GE Healthcare, Israel) density gradient centrifugation, as follows. Venous blood (10-20 ml) was drawn from CLL patients with satisfying diagnostic criteria for CLL or from normal adult donors. Blood was collected into heparin tubes and was diluted 1:1 with balance solution composed of two stock solutions, A (1% D-glucose, 50 mM CaCl2, 0.98 mM MgCl2, 5.4 mM KCl and 0.145 M Tris-HCl, pH 7.6) and B (0.14 M NaCl) in a 1:9 ratio. The resulting mix was carefully layered on Ficoll-Paque Plus (10 ml of diluted blood:15 ml Ficoll) in 50 ml conical tubes. The tubes were centrifuged at 400×g (with minimal acceleration and deceleration) and 18-20° C. for 40 min. […] Cells were counted by a Countess Automated Cell Counter (Invitrogen).
PBMCs (4×10^5 or 8×10^5 cells/sample) were incubated in 200 μl serum-free medium with the examined peptide for 90 min at room temperature and centrifuged (500×g, 5 min) Cell death was analyzed by PI staining and flow cytometer (Beckton-Dickinson) and BD Cell Quest Pro software. Apoptotic cell death was also analyzed by PI and annexin V-FITC staining (Zaid H et al. 2005. 12:751-760), and by acridine orange and ethidium bromide staining and confocal microscopy (Olympus 1×81). […]

Test [3] deals with MO1043 cells. The experiment in a line: Cell death of MO1043 cells, PI staining and FACS. Type of test: cell-based, human. To be noted: compared with N-Ter-Antp. The protocol: as §1, §2
To optimize the VDAC1 N-terminal derived peptides with respect to stability, length and specific targeting to cancer cells, several versions of these peptides were designed and tested for their efficacy in inducing the death of CLL-derived lymphocytes and MEC-1 cells (Table 3). Cells were incubated for 90 min with increasing concentrations of the indicated peptide and death was analyzed by PI stating and FACS as described hereinabove. […]

Where no end group is shown, it is not given here.

For the sequence “GKSARDVFTKGYGFGLRQIKIWFQNRRMKWKK [Δ(1-10) N-Ter-Antp, GKSARDVFTKGYGFGL RQIKIWFQNRRMKWKK]”, the “cell-death induction activity, in words” value in test [1] is reported as “did not significantly modified the cell-death induction activity”.

Regarding “MAVPPTYADLGKSARDVFTKGYGFGLRQIKIWFQNRRMKWKK [N-Ter-Antp, reference compound]”, the IC50 – broadly, the point on the concentration scale where inhibition reaches its midpoint – is 4.2 ± 0.2 µM in test [1] (90 min incubation, serum-free medium, PI staining, FACS, read-out: IC50, induction of cell death, MEC-1) and 3.2 ± 0.5 µM in test [2].

Turning to “MAVPPTYADLGKSARDVFTKRQIKIWFQNRRMKWKK [Δ(21-26) N-Ter-Antp]”, in test [1], the “cell-death induction activity, in words” value was “non-active”.

For “PTYADLGKSARDVFTKGYGFGLRQIKIWFQNRRMKWKK [Δ(1-4) N-Ter-Antp]”, in test [1], the “cell-death induction activity, in words” value is reported as “did not significantly modified the cell-death induction activity”.

Take “RDVFTKGYGFGLRQIKIWFQNRRMKWKK [Δ(1-14) N-Ter-Antp, RDVFTKGYGFGL RQIKIWFQNRRMKWKK]”: in test [1], the “cell-death induction activity, in words” value was “more active”.

Consider “TKGYGFGL RQIKIWFQNRRMKWKK (TKGYGFGLRQIKIWFQNRRMKWKK) [Δ(1-18) N-Ter-Antp]”, for which the “cell-death induction activity, in words” value in test [3] is reported as “more active”.
